In PubChem BioAssay (NCI):
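How tested: cells in 96-well plates exposed to compound for 48 hours at five concentrations. GI50 marks 50% less growth. TGI: total growth inhibition.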

Assays:
Test in all cases: growth of human tumour cells (NCI), 48 h
KM12 colon = system: KM12 colon
SN12C renal = system: SN12C renal
HS 578T breast = system: HS 578T breast
CCRF-CEM leukemia = system: CCRF-CEM leukemia
786-0 renal = system: 786-0 renal
ACHN renal = system: ACHN renal
SW-620 colon = system: SW-620 colon
A549 NSCLC = system: A549 NSCLC
CAKI-1 renal = system: CAKI-1 renal
U251 CNS = system: U251 CNS

Structure (SMILES)	GI50 (KM12 colon) [µM]	TGI (KM12 colon) [µM]	GI50 (SN12C renal) [µM]	TGI (SN12C renal) [µM]	GI50 (HS 578T breast) [µM]	TGI (HS 578T breast) [µM]	GI50 (CCRF-CEM leukemia) [µM]	TGI (CCRF-CEM leukemia) [µM]	GI50 (786-0 renal) [µM]	TGI (786-0 renal) [µM]	GI50 (ACHN renal) [µM]	TGI (ACHN renal) [µM]	GI50 (SW-620 colon) [µM]	TGI (SW-620 colon) [µM]	GI50 (A549 NSCLC) [µM]	TGI (A549 NSCLC) [µM]	GI50 (CAKI-1 renal) [µM]	TGI (CAKI-1 renal) [µM]	GI50 (U251 CNS) [µM]	TGI (U251 CNS) [µM]
Oc1c(CN2CCN(c3ccccc3F)CC2)cc(Br)c2cccnc12	0.672	> 100	0.987	20.5	1.82	55.5	0.355	6.35	2.42	12.6	0.495	13.7	0.47	20.2	0.546	13	0.376	9.26	0.529	11.1
COc1ccc2c(c1)C(=O)c1c-2c(NCCN(C)C)nc2ccccc12	2.94	23	3.74	16	9.28	26.8	0.561	11.5	2.65	9.1	1.17	6.43	3.4	14	0.946	4.49	0.373	2.48	2.47	11.7
O=S(=O)(Nc1ccccn1)c1ccc(N=Nc2ccc(O)c3ncccc23)cc1	1.17	15	1.02	> 29.8	1.06	8.86	1.21	> 95.2	3.42	13.6	0.976	9.64	0.952	25.5	1.65	14	0.441	4.56	0.388	7.04
COc1ccc(C2CC(=O)c3c(O)c(OC)c(OC)c(OC)c3O2)cc1O (stereo not drawn)	0.0585	> 100	1.1	> 100	0.0498	> 100	0.115	> 100	1.64	> 100	0.572	> 100	0.0418	> 100	0.817	> 100	0.43	> 100	0.191	> 100
C[C@@H]1OCC2(CCN(c3cnc(Sc4ccnc(N)c4Cl)c(N)n3)CC2)[C@@H]1N	5.46	> 100	27.7	> 100	61.8	> 100	> 95.6	> 100	98.6	> 100	4.71	> 100	88.7	> 100	> 100	> 100	3.69	> 100	9.48	> 100
Nc1ccc(-c2ccc(-c3nc4cc(Cl)c(Cl)cc4[nH]3)cc2)cc1	0.826	–	17.9	> 66.7	12	82.1	0.508	> 52.7	2.05	18.9	0.0833	> 34.8	< 0.0313	> 100	1.46	> 100	0.353	–	12	> 53.1
CC(C)c1ccc2nc3ccc(C(=O)NCCN4CCN(c5ccccc5)CC4)cn3c(=O)c2c1	–	> 100	–	–	–	> 100	–	> 100	–	> 100	–	–	–	> 100	–	> 100	–	> 100	–	> 100
O=c1ccnc(SCc2ccc(Cl)cc2)[nH]1	–	> 100	–	> 100	–	> 100	–	> 100	–	> 100	–	> 100	–	> 100	–	> 100	–	> 100	–	> 100
Nc1c2ccccc2nc2ccccc12 (tested in a mixture with another compound)	2.22	6.77	1.53	12.2	3.06	17.4	2.72	77.3	2.45	9.4	0.779	8.72	1.44	10.1	–	–	1.83	5.11	2.68	10.9
Nc1nc(-c2ccccc2)cc(-c2ccc(Cl)cc2)c1-c1nc2ccccc2o1	5.65	20.7	7.56	20	14.8	36.1	3.8	17	10.6	22.3	11.1	23	14.9	29.3	14.9	31.4	22.9	38.6	9.2	21
COC1=C(OC)[C@]2(OC)c3c(O)c(OC)c4c(c3O[C@@]23O[C@@H](c2ccccc2)CC=C3C1=O)[C@@H](O)C[C@H](c1ccccc1)O4	–	–	0.27	0.893	1.76	5.38	0.0545	0.208	0.171	0.339	0.819	2.06	0.173	0.334	2.01	4.39	1.34	2.93	1.8	3.55
C/C(=C\c1ccn(-c2ccc(N)cc2F)n1)[C@@H]1C[C@@H]2O[C@]2(C)CCC[C@H](C)[C@H](O)[C@@H](C)C(=O)C(C)(C)[C@@H](O)CC(=O)O1	0.0156	> 50	0.0768	> 50	0.0606	> 16.6	0.0197	> 50	0.0992	> 50	0.202	> 50	0.0212	> 50	0.0355	> 50	0.123	> 50	0.0285	> 50
Cc1ccc(NC(=O)c2cc3ccccc3cc2O)c(C)c1.Cc1ccc(NC(=O)c2cc3ccccc3cc2[O-])c(C)c1.[Ni+2]	3.41	15.9	3.12	15.1	2.98	9.38	–	–	3.77	14.6	4.22	–	4.24	36.8	3.44	15.6	3.08	13.1	2.91	8.62
CCOCCOC[C@H]1CCCN(c2ccnc3sc(C(N)=O)c(N)c23)C1	36.6	> 100	29.8	> 100	44.1	> 100	–	–	> 100	> 100	9.95	> 100	> 100	> 100	77.4	> 100	30.5	> 100	> 100	> 100
Clc1ccc2c(NCCNc3nc(N4CCCC4)nc4ccccc34)ccnc2c1	1.02	2.46	1.16	3.3	2.34	7	0.457	> 100	1.17	3.18	1.64	3	0.1	1.45	0.29	2.54	–	–	1.49	3.15
Nc1ncnc2c1ncn2C1OC(COC2C(CO)OC(OC(C(=O)O)C(O)C(OP(=O)(O)O)C(O)C(=O)O)C(O)C2O)C(O)C1O (stereo not drawn)	–	> 100	–	–	–	91.2	–	> 100	–	> 100	–	> 100	–	> 100	–	> 100	–	> 100	–	> 100
COc1cnc2c(c1)C(=O)c1c-2n(CCCNC(C)C)c(=O)c2cc([N+](=O)[O-])ccc12	0.221	0.981	0.0393	0.438	0.938	3.24	0.029	0.658	0.0351	0.156	0.0267	0.121	0.0393	0.643	–	–	0.0314	0.191	0.0303	0.158
C=C1C(=O)O[C@H]2[C@H]1CC/C(COC(=O)NCc1cc(OC)cc(OC)c1)=C\CC[C@@]1(C)O[C@@H]21	2.8	11	–	–	4.12	23	0.476	4.36	1.7	3.45	1.29	2.8	1.12	3.97	2.58	7.47	1.59	3.1	3.16	11.1
COc1cc(/C=C2\C[C@H]3[C@@H]4CC=C5C[C@@H](OC(C)=O)CC[C@]5(C)[C@H]4CC[C@]3(C)[C@H]2OC(C)=O)ccc1OCCN1CCCCC1	14.4	46.1	10.8	27.1	12.1	42.8	–	–	12.3	21.3	9.28	16.8	11.2	> 50	19.3	> 50	15.6	> 50	8.76	16.5
